Test results taken from patent US20240423977A1, “FIVE-MEMBERED RING-FUSED SIX-MEMBERED RING COMPOUND, PREPARATION METHOD THEREFOR, AND PHARMACEUTICAL COMPOSITION AND USE THEREOF” (HANGZHOU POLYMED BIOPHARMACEUTICALS, INC., priority 2022, published 2024).

Legend:
kinase IRAK4 = kinase IRAK4 (Homo sapiens (Human), UniProt Q9NWZ3); assay: Inhibitory effects of compounds on kinase activity (fluorescence microfluidic mobility detection, competitive with ATP); assay type: biochemical; conditions: IRAK4 6 nM, ATP 10 μM
Experimental: Based on an experimental method of fluorescence microfluidic mobility detection, an IC50 value of competitive binding of kinase IRAK4 to ATP by the compounds was determined. The initial detection concentration of the compounds was 10 μM, diluted 4-fold gradient down to […], and tested in duplicate. Among them, commercial staurosporine was the standard control substance in this experiment.
1) IRAK4 kinase was dissolved in kinase buffer (50 mM HEPES pH 7.5, 10 mM MgCl2, 2 mM DTT and 0.01% Brij-35) to a final concentration of 6 nM.
2) The substrate peptide FAM-P8 and ATP were dissolved in the above kinase buffer. The final concentrations of the IRAK4 substrate peptide FAM-P8 and ATP were 3 μM and 10 μM respectively.
3) Dilution of the compounds: the compound was first diluted to 50 μM, and then diluted down with a 4-fold gradient of DMSO. The solution without the compound and kinase is used as a blank control, corresponding to the “minimum value” shown below; and the solution without the compound but with kinase, adenosine 5′-triphosphate disodium salt hydrate, DMSO and buffer is used as a positive control, corresponding to the “maximum value” shown below. 4) Kinase reaction and termination: 10 μL of kinase buffer was added to a 384-well plate containing 5 μL of the compound to be tested, and incubated at room temperature for 10 minutes. Another 10 μL of buffer containing the substrate peptide and adenosine 5′-triphosphate disodium salt hydrate was added to the 384-well plate. After incubation at 28° C. for one hour, 25 μL stop solution (100 mM HEPES pH 7.5, 50 mM EDTA, 0.2% Coating Reagent #3 and 0.015% Brij-35) was added to each well to terminate the reaction.
5) Data reading: the CaliperEZ Reader II instrument was used to read the conversion rate data. Conditions: downstream voltage −500V, upstream voltage −2250V, base pressure −0.5 PSI, and screening pressure −1.2 PSI.
6) Data calculation: the conversion rate data was copied from CaliperEZ Reader II and converted into inhibition rate data. The calculation formula is as follows:
[formula] • IC50 values were fitted using XLFit excel add-in version 5.4.0.8,
Y=Bottom+(Top−Bottom)/(1+(IC50/X)^HillSlope) Fitting formula: […]

[1] = target: IRAK4 protein in THP-1 cells (Homo sapiens (Human), UniProt Q9NWZ3); assay: PROTAC-induced IRAK4 protein degradation in THP-1 cells (Western Blot); assay type: cell-based; conditions: for DC50: concentration that degraded 50% of IRAK4, Western blotting, 24 hours after administration; for IRAK4 degradation rate 24 hours after administration of the compounds with a concentration of 1 μM: Western blotting
Experimental: 2.1 Based on the experimental method of Western Blot, specific antibodies were used to stain the THP-1 cell samples treated by gel electrophoresis, and the degrading activity of the compounds on the IRAK4 protein in THP-1 cells was determined by analyzing the position and depth of staining. The concentrations of compound for the detection included 0 μM, 0.3 μM, 1 μM and 3 μM, and the cells were treated by the compound for 8 hours, 16 hours, 24 hours, and 48 hours. Glyceraldehyde-3-phosphate dehydrogenase (GAPDH) is an internal reference protein in this experiment.
Electrophoresis buffer: 50 mL MOPS SDS Running Buffer (20×) and 50 mL 20×TBS Tween-20 buffer were diluted with deionized water to 1 L as the electrophoresis buffer;
5% skim milk (w/v): 2.5 g skim milk was diluted with 50 mL 1×TBS Tween-20 buffer to prepare 5% skim milk;
5% BSA (w/v): 2.5 g BSA was diluted with 50 mL 1×TBS Tween-20 buffer to prepare 5% BSA;
Anti-IRAK4 antibody was diluted with 5% BSA at 1:1000 into a primary antibody working solution;
Goat Anti-Rabbit IgG H&L (HRP) was diluted with 5% BSA at 1:2000 into a second antibody working solution; and
Goat Anti-Mouse IgG H&L (HRP) was diluted with 5% BSA at 1:2000 into a second antibody working solution.
THP-1 cells were plated in a 6-well plate at a density of 1.5×10^6 cells per ml and incubated for 2 hours in a cell culture incubator under 37° C. and 5% CO2. The compound was diluted with DMSO to 0.6 mM, 0.2 mM and 0.06 mM respectively. 10 μL of compound solution was added to the corresponding wells, and continued to incubate in the incubator for 16 hours, 24 hours and 48 hours respectively. The compound-treated THP-1 cells in the well were collected, added with 120 μL of RIPA lysate containing protease inhibitor, Phosphatase Inhibitor Cocktail 2 and Phosphatase Inhibitor Cocktail 3, lysed on wet ice for 30 minutes, and then the cells lysate was centrifuged at a high speed and a low temperature for 5 minutes to collect the supernatant. The protein concentration of the cell sample was determined according to the instructions in the Pierce™ BCA Protein Assay Kit.
The concentration of the sample was adjusted to be consistent using lysis buffer and NuPAGE® LDS sample buffer containing 1M DTT. The samples were heated at 95° C. for 5 minutes and centrifuged at a low temperature and at a high speed. 20 μL of the prepared protein sample and 4 μL of PageRuler Prestained Protein Ladder were added into the gel well for running at 80V voltage for 0.5 hours, then the voltage was adjusted to 120V for further running for 1.5 hours. The gel was removed and the proteins in the gel were transferred to the IBlotTM 2 transfer membrane set at 20V. After successful transfer, bands at 65 kDa-40 kDa and 40 kDa-30 kDa were cut respectively. The membranes were blocked with 5% skim milk for 1 hour at room temperature. The membranes were washed three times with 1× concentration of TBST, then incubated with IRAK4 antibody working solution overnight at 4° C. The IRAK4 antibody working solution was discarded, and the membranes were washed three times with 1×concentration of TBST, and incubated with Goat Anti-Rabbit IgG H&L (HRP) working solution and Goat Anti-Mouse IgG H&L (HRP) working solution at room temperature. After 1 hour of incubation, the antibody working solution was discarded and the membranes were washed three times with 1× concentration of TBST. According to the instructions of the kit SuperSignal™ West Femto Maximum Sensitivity Substrate, the reagents in the kit were mixed in equal volume proportions to prepare a luminescent liquid mixture. The membranes were incubated for 1 minute, then removed for exposure.
The results of Western blotting 24 hours after administration of the compounds with a concentration of 1 μM were shown in Table 3: […]

kinase IRAK4, sequence (Q9NWZ3 whole entry): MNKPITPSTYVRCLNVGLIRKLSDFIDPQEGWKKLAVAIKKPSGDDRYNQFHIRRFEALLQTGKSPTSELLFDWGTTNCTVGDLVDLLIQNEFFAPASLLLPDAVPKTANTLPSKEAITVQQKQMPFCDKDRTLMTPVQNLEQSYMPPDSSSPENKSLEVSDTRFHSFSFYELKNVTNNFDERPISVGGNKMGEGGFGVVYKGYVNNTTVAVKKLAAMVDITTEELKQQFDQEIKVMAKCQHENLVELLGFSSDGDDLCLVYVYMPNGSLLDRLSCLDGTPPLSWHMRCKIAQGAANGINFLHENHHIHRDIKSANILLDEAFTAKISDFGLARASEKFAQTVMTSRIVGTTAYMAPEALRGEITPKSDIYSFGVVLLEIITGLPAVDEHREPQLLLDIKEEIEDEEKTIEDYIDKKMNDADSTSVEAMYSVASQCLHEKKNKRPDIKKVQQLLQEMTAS
IRAK4 protein in THP-1 cells, sequence (Q9NWZ3 whole entry): as above

IC50 (kinase IRAK4; Table 2, substrate FAM-P8 3 μM) [nM]	DC50 [1] [nM]	IC50 (kinase IRAK4; Table 1, class symbols) [nM]	IRAK4 degradation rate 24 hours after administration of the compounds with a concentration of 1 μM [1]	Structure (SMILES)
32.9	12	–	–	O=C1CCC(N2C(=O)c3ccc(N4CCC(C(=O)N5CCC6(CC5)CC(n5cc7cc(NC(=O)c8cccc(C(F)(F)F)n8)c(N8CCOCC8)cc7n5)C6)CC4)cc3C2=O)C(=O)N1 (stereo not drawn) [Compound I-9]
70.7	21.6	–	–	COc1cc2nn(C3CC4(CCN(C(=O)C5(F)CCN(c6ccc7c(c6)C(=O)N(C6CCC(=O)NC6=O)C7=O)CC5)CC4)C3)cc2cc1NC(=O)c1cccc(N2CCOCC2)n1 (stereo not drawn) [Compound I-50]
4.81	15.8	< 100	–	COc1cc2nn(C3CC4(CCN(CC5CCN(c6ccc7c(c6)C(=O)N(C6CCC(=O)NC6=O)C7=O)CC5)CC4)C3)cc2cc1NC(=O)c1cccc(C(F)(F)F)n1 (stereo not drawn) [Compound I-13]
57.6	1.08	–	–	CC(O)(c1cc2nn(C3CC4(CCN(C(=O)C5CCN(c6ccc7c(c6)C(=O)N(C6CCC(=O)NC6=O)C7=O)CC5)CC4)C3)cc2cc1NC(=O)c1cccc(C(F)(F)F)n1)C(F)(F)F (stereo not drawn) [Compound I-12F]
7.45	5.98	< 100	–	COc1cc2nn(C3CCN(C(C)C(=O)N4CCN(c5ccc6c(c5)C(=O)N(C5CCC(=O)NC5=O)C6=O)CC4)CC3)cc2cc1NC(=O)c1cccc(C(F)(F)F)n1 (stereo not drawn) [II-10]
10.2	1.2	–	–	COc1cc2nn(C3CC4(CCN(C(=O)C5CCN(c6ccc7c(c6)C(=O)N(C6CCC(=O)NC6=O)C7=O)CC5)CC4)C3)cc2cc1NC(=O)c1cccc(C(F)F)n1 (stereo not drawn) [Compound I-42]
12.5	8.3	–	–	COc1cc2nn([C@H]3C[C@@H]4CN(C(=O)C5CCN(c6ccc7c(c6)C(=O)N(C6CCC(=O)NC6=O)C7=O)CC5)C[C@@H]4C3)cc2cc1NC(=O)c1cccc(C(F)(F)F)n1 (stereo partly drawn) [Compound I-28]
34.3	14.6	–	–	COc1cc2nn(C3CC4(CCN(C(=O)C5CCN(c6ccc7c(c6)C(=O)N(C6CCC(=O)NC6=O)C7=O)CC5(F)F)CC4)C3)cc2cc1NC(=O)c1cccc(N2CCOCC2)n1 (stereo not drawn) [Compound I-55]
11.6	6.2	–	–	COc1cc2nn(C3CC4(CCN(C(=O)C5CCN(c6ccc7c(c6)C(=O)N(C6CCC(=O)NC6=O)C7=O)CC5)CC4)C3)cc2cc1NC(=O)c1coc(N2CCOCC2)n1 (stereo not drawn) [Compound I-54]
11	> 1000	< 100	<25%	COc1cc2nn(C3CCN(C4CCN(C(=O)c5ccc6c(c5)C(=O)N(C5CCC(=O)NC5=O)C6=O)CC4)CC3)cc2cc1NC(=O)c1cccc(C(F)(F)F)n1 (stereo not drawn) [II-17]
31.4	7.62	–	–	COc1cc2nn(C3CC4(CCN(C(=O)C5CCN(c6cc7c(cc6F)C(=O)N([C@H]6CCC(=O)NC6=O)C7=O)CC5)CC4)C3)cc2cc1NC(=O)c1cccc(C(F)(F)F)n1 [Compound I-61]
14.1	2.61	–	–	COc1cc2nn(C3CC4(CCN(C(=O)C5CCN(c6ccc7c(c6)C(=O)N(C6CCC(=O)NC6=O)C7=O)CC5)CC4)C3)cc2cc1NC(=O)c1cccc(C)n1 (stereo not drawn) [Compound I-38]
19.2	> 1000	–	–	O=C1CCC(N2C(=O)c3ccc(N4CCC(C(=O)N5CCC6(CC5)CC(n5cc7cc(NC(=O)c8cccc(C(F)(F)F)n8)c(C(=O)O)cc7n5)C6)CC4)cc3C2=O)C(=O)N1 (stereo not drawn) [Compound I-48]
3.57	2.2	–	–	COc1cc2nn(C3CCN(CC(=O)N4CCN(c5ccc6c(c5)CN(C5CCC(=O)NC5=O)C6=O)CC4)CC3)cc2cc1NC(=O)c1cccc(C(F)(F)F)n1 (stereo not drawn) [II-7]
26.5	8.05	–	–	COc1cc2nn(C3CC4(CCN(C(=O)C5(O)CCN(c6ccc7c(c6)C(=O)N(C6CCC(=O)NC6=O)C7=O)CC5)CC4)C3)cc2cc1NC(=O)c1cccc(C(F)(F)F)n1 (stereo not drawn) [Compound I-33]
34	47.3	–	–	COc1cc2nn(C3CC4(CCN(C(=O)[C@H]5CC[C@H](Oc6ccc7c(c6)C(=O)N(C6CCC(=O)NC6=O)C7=O)CC5)CC4)C3)cc2cc1NC(=O)c1cccc(C(F)(F)F)n1 (stereo partly drawn) [Compound I-31]
20	12.4	< 100	50~75%	COc1cc2nn(C3CCN(C(=O)CN4CCN(c5ccc6c(c5)C(=O)N(C5CCC(=O)NC5=O)C6=O)CC4)CC3)cc2cc1NC(=O)c1cccc(C(F)(F)F)n1 (stereo not drawn) [II-4]
20.4	> 1000	–	–	COc1cc2nn(C3CC4(CCN(C(=O)C5CCN(c6cccc7c6C(=O)N(C6CCC(=O)NC6=O)C7=O)CC5)CC4)C3)cc2cc1NC(=O)c1cccc(C(F)(F)F)n1 (stereo not drawn) [Compound I-25]
